# From ChEMBL document CHEMBL6078661, “Alkaloids from Mackinlaya species and synthetic mackinazolinone derivatives: An overview” (Bioorg Med Chem, 2025)
# pIC50: −log10 of the molar value.
# Key:
# [1] = test system: Naegleria fowleri; assay: Antiparasitic activity against Naegleria fowleri NF69 (ATCC 30215) assessed as parasitic growth inhibition at 10 uM incubated for 48 hrs by CellTiter-Glo based BioTek microplate reader analysis relative to control; type: functional; parameters: scale not given: the % may be the effect or the level left
# [2] = molecular target: Acetylcholinesterase (Homo sapiens, UniProt P22303); assay: Competitive inhibition of AChE (unknown origin)
# [3] = test system: HeLa; assay: Antiproliferative activity against human HeLa cells assessed as inhibition of cell proliferation; type: functional, cell-based
# [4] = test system: Bacillus cereus; assay: Antibacterial activity against Bacillus cereus assessed as diameter of inhibition zone; type: functional
# [5] = test system: Pseudomonas aeruginosa; assay: Antibacterial activity against Pseudomonas aeruginosa assessed as diameter of inhibition zone; type: functional
# [6] = test system: Escherichia coli; assay: Antibacterial activity against Escherichia coli assessed as diameter of inhibition zone; type: functional
# [7] = test system: Staphylococcus aureus; assay: Antibacterial activity against Staphylococcus aureus assessed as diameter of inhibition zone; type: functional
# [8] = test system: A549; assay: Cytotoxicity against human A549 cells assessed as reduction in cell viability; type: functional
# [9] = test system: MCF7; assay: Cytotoxicity against human MCF7 cells assessed as reduction in cell viability; type: functional, cell-based
# [10] = test system: HeLa; assay: Cytotoxicity against human HeLa cells assessed as reduction in cell viability; type: functional, cell-based
# Acetylcholinesterase, sequence (P22303 whole entry): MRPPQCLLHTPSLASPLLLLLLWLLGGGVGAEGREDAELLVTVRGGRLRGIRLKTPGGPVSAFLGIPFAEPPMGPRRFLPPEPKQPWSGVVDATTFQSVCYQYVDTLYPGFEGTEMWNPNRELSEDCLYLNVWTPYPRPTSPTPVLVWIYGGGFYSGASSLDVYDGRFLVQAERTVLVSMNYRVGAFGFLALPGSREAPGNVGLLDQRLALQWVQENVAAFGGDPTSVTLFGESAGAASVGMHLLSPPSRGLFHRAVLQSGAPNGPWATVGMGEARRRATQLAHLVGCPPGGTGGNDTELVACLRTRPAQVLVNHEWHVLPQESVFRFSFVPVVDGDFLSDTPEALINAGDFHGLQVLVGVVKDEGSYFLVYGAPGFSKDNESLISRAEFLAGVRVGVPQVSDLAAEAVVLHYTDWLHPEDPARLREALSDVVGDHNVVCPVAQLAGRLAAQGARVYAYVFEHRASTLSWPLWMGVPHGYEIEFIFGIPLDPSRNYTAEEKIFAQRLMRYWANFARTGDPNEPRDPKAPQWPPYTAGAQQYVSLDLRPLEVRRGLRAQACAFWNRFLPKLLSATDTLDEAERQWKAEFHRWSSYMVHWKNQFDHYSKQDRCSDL
compound,measurement,setting,value
CN1CCC[C@@H]2c3nc4ccc(Cl)cc4c(=O)n3CC[C@H]21,Activity,[1],98.1%
CN1CCC[C@@H]2c3nc4cc(C(F)(F)F)ccc4c(=O)n3CC[C@H]21,Activity,[1],96.8%
CN1CCC[C@H]2c3nc4ccc(C#N)cc4c(=O)n3CC[C@H]21,Activity,[1],98.2%
O=c1c2nc(-c3ccc(C(F)(F)F)cc3)sc2nc2n1CCCC2,pIC50,[2],5.78
COc1ccc(/C=C2\CCCn3c2nc2oc(-c4ccc(F)cc4)cc2c3=O)cc1OC,pIC50,[3],5.07
O=C1c2ccccc2NC2=C(/C=N/c3ccccc3O)CCCN12,diameter of the inhibition zone (DIZ),[4],18 mm
same,diameter of the inhibition zone (DIZ),[5],18 mm
same,diameter of the inhibition zone (DIZ),[6],6 mm
same,diameter of the inhibition zone (DIZ),[7],18 mm
O=c1c2nc(-c3cc(Cl)cc(Cl)c3)oc2nc2n1CCCC2,Activity,[8],0.75 µM
same,pIC50,[9],5.64
same,pIC50,[10],5.51
